Experimental data published in patent US20180105548A1, “A novel compound (KS-513) isolated from Pseudolysimachion rotundum var. subintegrum, the composition comprising the same preventing or treating allergic disease, inflammatory disease, asthma or chronic obstructive pulmonary disease and the use thereof” (priority 2015, published 2018).

Test system: PGE2
Assay: PGE2 production in LPS-treated RAW264.7 cell (EIA)
Format: cell-based, mouse
Conditions: for PGE2 production (relative % comparing with LPS treatment group) / PGE2 production, Inhibitory ratio (%): LPS 1 μg/mL, 24 hours
Protocol: In order to determine the inhibitory effect on the COX-2 protein expression and the reproduced level of PGE2, following test was performed by the method disclosed in the literature (Chen, C, et al., 1999, Involvement of p 38 mitogen-activated protein kinase in lipopolysaccharide-induced iNOS and COX-2 expression in J774 macrophage, Immunology, 97, pp 124-129)
RAW264.7 cell was inoculated into 96 well plates in the concentration of 1×10^5 cell/well to incubate for 18 hours. Various concentration of KS-513 compound (2.5, 5, 10 and 20 μM) was pre-treated therewith and 1 μg/mL of LPS (L6529, Sigma) was added thereto to incubate for 24 hours. The PGE2 level in the cell was determined by Enzyme immunoassay (EIA; Amersham Pharmacia) system and the result was shown in FIG. 4A, 4B and Table 6.

CO[C@@H]1C[C@H]2[C@H](OC(=O)c3ccc(O)cc3)[C@@H]3O[C@]3(CO)[C@H]2[C@H](O[C@@H]2O[C@H](CO)[C@@H](O)C(O)[C@H]2O)O1 (stereo partly drawn) [KS-513, (1aS, 1bS,2S,4S,5aR,6S,6aS)-1a-(hydroxymethyl)-4-methoxy-2-(((2S,3R,5S,6R)-3,4,5-trihydroxy-6-(hydroxymethyl)tetrahydro-2H-pyran-2-yl)oxy)octahydrooxireno[2′,3′:4,5]cyclopenta[1,2-c]pyran-6-yl 4-hydroxybenzoate]
PGE2 production (relative % comparing with LPS treatment group) (2.5 μM): 92.68 ± 7.29% | PGE2 production, Inhibitory ratio (%) (2.5 μM): 7.31% | PGE2 production (relative % comparing with LPS treatment group) (5 μM): 72.87 ± 8.78% | PGE2 production, Inhibitory ratio (%) (5 μM): 27.13% | PGE2 production (relative % comparing with LPS treatment group) (10 μM): 51.65 ± 8.44% | PGE2 production, Inhibitory ratio (%) (10 μM): 48.35% | PGE2 production (relative % comparing with LPS treatment group) (20 μM): 28.23 ± 4.72% | PGE2 production, Inhibitory ratio (%) (20 μM): 71.77% | reproduced ratio of PGE2 (based on LPS treatment (100%)): reduced in a dose dependent manner
